Assay results from patent US12195427B2, “MASP-2 inhibitors and methods of use” (priority 2018, dated 2025).

What was measured:
[1] = target: human α-thrombin (Homo sapiens (Human), UniProt P00734); assay: Enzymatic Assay for Thrombin (Boc-VPR-AMC); type: biochemical
[2] = target: MASP-2 CCP2-SP (Homo sapiens (Human), UniProt O00187); assay: MASP-2 co-crystallization, X-ray crystallography and structure analysis (H-bonds, van der Waals contacts); parameters: van der Waals contact distance, MASP-2 HIS 483 atom CD2 / van der Waals contact distance, MASP-2 HIS 483 atom NE2 / van der Waals contact distance, SER 654 C to compound atom / van der Waals contact distance, SER 654 O to compound atom / van der Waals contact distance, TRP 655 C to compound atom / van der Waals contact distance, MASP-2 GLY 528 atom CA / van der Waals contact distance TRP 655 atom CZ3 / van der Waals contact distance TRP 655 atom N / van der Waals contact distance TRP 655 atom CE3 / van der Waals contact distance GLY 656 atom C / van der Waals contact distance GLY 656 atom CA / van der Waals contact distance GLY 656 atom O / van der Waals contact distance, MASP-2 TYR 607 atom CD1 / van der Waals contact distance, MASP-2 PRO 606 atom O / d(C3,CA1) / d(CA1,N1)2 / d(H4,O1) / d(H4,O2) / d(O1,O2) / d(CA1,O2) / d(CA6,O1) / d(CA6,O2) / d(CA1,C5) / d(O2,H3) / d(N2,C2) / d(CA5,N2) / d(N2,C4) / d(N2,C6) / d(N2,CA3) / d(N2,O3) / d(O4,H2): unit not given beside the values; conditions: for H-bond distance to MASP-2 GLY 656 atom O: GLY 656 O; for H-bond distance to MASP-2 SER 628 atom O: SER 628 O; for H-bond distance to MASP-2 SER 654 atom O: SER 654 O; for H-bond distance to MASP-2 SER 657 atom O: SER 657 O; for van der Waals contact distance GLY 656 atom C: MASP-2 GLY 656 C; for van der Waals contact distance SER 657 atom C: MASP-2 SER 657 C, columns c12-c13 (inferred);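 on Ligand-pharmacophore element distance, pharmacophore element C2: distance from averaged pharmacophore element to bound ligand; missing value means element absent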;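 on Ligand-pharmacophore element distance, pharmacophore element C3: distance from averaged pharmacophore element to bound ligand; missing value means element absent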;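 on Ligand-pharmacophore element distance, pharmacophore element C4: distance from averaged pharmacophore element to bound ligand; missing value means element absent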;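 on Ligand-pharmacophore element distance, pharmacophore element C5: distance from averaged pharmacophore element to bound ligand; missing value means element absent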
How it was run: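 Inhibitor complexes were obtained by soaking crystals of E. coli-expressed human MASP-2 CCP2-SP constructs, then flash-cooling in liquid nitrogen. Structures solved by molecular replacement (1Q3X search model) from synchrotron diffraction; where several poses existed, only one was analyzed, and nonbonded contacts listed can include H-bonds.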

[3] = target: MASP-2 (CCP1-CCP2-SP) (Homo sapiens (Human), UniProt O00187); assay: Enzymatic Assay for MASP-2 (fluorogenic substrate); type: biochemical
[4] = Table A2-9 second part, ARG 630, AA atoms N, NE, NH1
[5] = Table A5-1 pharmacophore: distance between elements, S2/S1 region
[6] = Table A5-2 pharmacophore distance, S3/S4 region
[7] = Table A7-1, between pharmacophore elements of the bound compound
[8] = Table A8-6, nearest protein atom in cell to the left

MASP-2 CCP2-SP, sequence (O00187 445-686): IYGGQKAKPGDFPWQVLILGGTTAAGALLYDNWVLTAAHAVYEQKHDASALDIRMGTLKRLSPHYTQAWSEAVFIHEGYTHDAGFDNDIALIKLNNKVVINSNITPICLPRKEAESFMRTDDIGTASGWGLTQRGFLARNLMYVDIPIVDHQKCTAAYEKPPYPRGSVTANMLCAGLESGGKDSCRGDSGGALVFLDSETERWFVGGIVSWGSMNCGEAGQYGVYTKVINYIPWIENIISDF
MASP-2 CCP2-SP, sequence (O00187 364-432 partner): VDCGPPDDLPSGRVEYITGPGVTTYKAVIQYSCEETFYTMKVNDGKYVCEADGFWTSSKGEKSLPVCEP
MASP-2 (CCP1-CCP2-SP), sequence (O00187 445-686): as the sequence (O00187 445-686) above

With `C[C@H](NC(=O)[C@H](N)CCc1cccc(Cl)c1)C(=O)NCc1ccc(C(=N)N)cc1` [compound 1081] the Ki [1] was < 500 nM, the “H-bond distance to MASP-2 GLY 656 atom O” value ([2]; Table A1 (H-Bonds)) was 2.92 and the “H-bond distance to MASP-2 SER 628 atom O” value ([2]; Table A1 (H-Bonds)) was 2.86. The “H-bond distance to MASP-2 SER 654 atom O” value ([2]; Table A1 (H-Bonds)) was 2.81, the “H-bond distance to MASP-2 SER 657 atom O” value ([2]; Table A1 (H-Bonds)) was 2.69 and the “van der Waals contact distance, MASP-2 HIS 483 atom CD2” value ([2]; Table A2-1) was 3.74. The “van der Waals contact distance, MASP-2 PHE 529 atom CD1” value ([2]; Table A2-3) was 3.38, the “van der Waals contact distance, MASP-2 amino acid atom to compound atom” value ([2]; Table A2-7 continued: CYS 629 (CA)) was 3.8 and the “van der Waals contact distance, MASP-2 amino acid atom to compound atom” value ([2]; Table A2-9, ARG 630, AA atoms CG, CZ) was 3.76. The “van der Waals contact distance, MASP-2 amino acid atom to compound atom” value [2, 4] was 3.81, the “van der Waals contact distance, VAL 653 CG1 to compound atom” value ([2]; Table A2-11) was 3.84 and the “van der Waals contact distance GLY 656 atom C” value ([2]; Table A2-13) was 3.27. The “van der Waals contact distance TRP 655 atom N” value ([2]; Table A2-13, MASP-2 TRP 655 N) was 3.83, the “van der Waals contact distance TRP 655 atom O” value ([2]; Table A2-13, MASP-2 TRP 655 O) was 3.8 and the “van der Waals contact distance GLY 656 atom O” value ([2]; Table A2-14, MASP-2 GLY 656 O) was 3.81. The “van der Waals contact distance SER 657 atom C” value ([2]; Table A2-14) was 3.62, the “Ligand-pharmacophore element distance, pharmacophore element C2” value ([2]; Table A4-1, element C2) was 0 and the “Ligand-pharmacophore element distance, pharmacophore element C3” value ([2]; Table A4-1, element C3) was 0. For the same compound, the “Ligand-pharmacophore element distance, pharmacophore element C4” value ([2]; Table A4-1, element C4) was 1.99, the “Ligand-pharmacophore element distance, pharmacophore element C5” value ([2]; Table A4-1, element C5) was 0 and the “Ligand-pharmacophore element distance, pharmacophore element C6” value ([2]; Table A4-1, element C6) was 0. For the same compound, the “Ligand-pharmacophore element distance, pharmacophore element C7” value ([2]; Table A4-1, element C7) was 0, the “Ligand-pharmacophore element distance, pharmacophore element CA1” value ([2]; Table A4-1, element CA1) was 0.48 and the “Ligand-pharmacophore element distance, pharmacophore element CA2” value ([2]; Table A4-1, element CA2) was 0.76. The “Ligand-pharmacophore element distance, pharmacophore element CA3” value ([2]; Table A4-1, element CA3) was 0, the “Ligand-pharmacophore element distance, pharmacophore element CA4” value ([2]; Table A4-1, element CA4) was 0 and the “Ligand-pharmacophore element distance, pharmacophore element CA5” value ([2]; Table A4-1, element CA5) was 0. For the same compound, the “Ligand-pharmacophore element distance, pharmacophore element CA6” value ([2]; Table A4-1, element CA6) was 0, the “d(CA1,N1)” value [2, 5] was 3.62 and the “d(CA1,O1)” value [2, 5] was 4.57. The “d(CA1,O2)” value [2, 5] was 4.27, the “d(H4,O1)” value [2, 5] was 5.10 and the “d(H4,O2)” value [2, 5] was 4.46. For the same compound, the “d(O1,O2)” value [2, 5] was 3.45, the “d(N2,C4)” value [2, 6] was 7.56 and the “d(N2,C4)4” value [2, 6] was 7.56. For the same compound, the “d(N2,CA2)” value [2, 6] was 6.05, the “d(O2,H3)” value [2, 6] was 5.78 and the “d(O2,N2)” value [2, 6] was 2.76. The “a(CA1, O1, O2)” value ([2]; Table A6-1 pharmacophore angle) was 108.25, the “a(O1, O2, H4)” value ([2]; Table A6-1 pharmacophore angle) was 138.44 and the “A(N1, CA1, O1) a)” value ([2]; Table A6-1 pharmacophore angle, all compounds with protonatable center N1 except Methyl-amino-pyridine) was 163.55. For the same compound, the “a(O1, O2, H3)” value ([2]; Table A6-2 pharmacophore angle) was 153.00, the “a(O1, O2, N2)” value ([2]; Table A6-2 pharmacophore angle) was 139.53 and the “a(O2, N2, C4)” value ([2]; Table A6-2 pharmacophore angle) was 161.57. The “a(O2, N2, C4) 2” value ([2]; Table A6-2 pharmacophore angle) was 119.80, the “a(O2, N2, CA2)” value ([2]; Table A6-2 pharmacophore angle) was 153.98 and the “Pharmacophore torsion angle a(H4, O1, O2, H3)” value [2, 7] was 36.36. For the same compound, the “Pharmacophore torsion angle a(H4, O1, O2, N2)” value [2, 7] was 121.47, the “Pharmacophore torsion angle a(N1, CA1, O2, H4)” value [2, 7] was −125.05 and the “Pharmacophore torsion angle a(O1, H4, O2, CA1)” value [2, 7] was −62.03. For the same compound, the “Pharmacophore torsion angle a(O1, O2, N2, CA2)” value ([2]; Table A7-2, between pharmacophore elements of the bound compound) was 142.86, the “Pharmacophore protein distance to MET_658 (first MET_658 column)” value ([2]; Table A8-6, 6th residue column, nearest protein atom in cell to the left) was 3.11 and the “Pharmacophore protein distance to MET_658 (second MET_658 column)” value ([2]; Table A8-6, 9th residue column, nearest protein atom in cell to the left) was 3.70. The “Pharmacophore protein distance to GLY_528” value [2, 8] was 3.22, the “Pharmacophore protein distance to PHE_529” value [2, 8] was 3.23 and the “Pharmacophore protein distance to PRO_608” value [2, 8] was 4.72. For the same compound, the “Pharmacophore protein distance to SER_611” value [2, 8] was 2.66, the “Pharmacophore protein distance to TRP_655” value ([2]; Table A8-6, pharmacophore elements C6, CA3, O3, H1, nearest protein atom in cell to the left) was 3.69 and the Ki [3] was < 500 nM.
`C[C@H](NC(=O)[C@H]1Cc2c([nH]c3ccccc23)CN1)C(=O)NCc1ccc(C(=N)N)cc1` [compound 1097] was tested, and the Ki [1] was < 500 nM, the “H-bond distance to MASP-2 ASP 627 atom OD2” value ([2]; Table A1 (H-Bonds), ASP 627 OD2) was 2.74 and the “H-bond distance to MASP-2 GLY 656 atom N” value ([2]; Table A1 (H-Bonds), GLY 656 N) was 3.12. For the same compound, the “H-bond distance to MASP-2 GLY 656 atom O” value ([2]; Table A1 (H-Bonds)) was 2.98, the “H-bond distance to MASP-2 SER 628 atom O” value ([2]; Table A1 (H-Bonds)) was 3.03 and the “H-bond distance to MASP-2 SER 654 atom O” value ([2]; Table A1 (H-Bonds)) was 2.81. The “H-bond distance to MASP-2 SER 657 atom O” value ([2]; Table A1 (H-Bonds)) was 2.74, the “van der Waals contact distance, MASP-2 HIS 483 atom CD2” value ([2]; Table A2-1) was 3.63 and the “van der Waals contact distance, MASP-2 HIS 483 atom NE2” value ([2]; Table A2-1) was 3.53. The “van der Waals contact distance, MASP-2 PRO 606 atom C” value ([2]; Table A2-4) was 3.74, the “van der Waals contact distance, MASP-2 PRO 606 atom CB” value ([2]; Table A2-4) was 3.84 and the “van der Waals contact distance, MASP-2 PRO 606 atom CG” value ([2]; Table A2-4) was 3.82. The “van der Waals contact distance, MASP-2 PRO 606 atom O” value ([2]; Table A2-4) was 3.33, the “van der Waals contact distance, MASP-2 TYR 607 atom CA” value ([2]; Table A2-4) was 3.79 and the “van der Waals contact distance, MASP-2 amino acid atom to compound atom” value [2, 4] was 3.71. For the same compound, the “van der Waals contact distance, SER 654 C to compound atom” value ([2]; Table A2-11) was 3.73, the “van der Waals contact distance GLY 656 atom C” value ([2]; Table A2-13) was 3.46 and the “van der Waals contact distance SER 657 atom C” value ([2]; Table A2-14) was 3.52. For the same compound, the Ki [3] was < 500 nM.
